Measured values from article PMC6581923 (Journal of Molecular Neuroscience, 2018).
“Also recorded” adds a separate entry of the source.

Assays:
Type in all cases: in vivo, rat (male)
[1] = Efficiency of Traversing Eye to Retina (EtE) of FITC labeled peptides given in eye drops
Procedure: In order to trace the drugs, peptides were labeled with fluorescein isothiocyanate (FITC) using a FITC Protein Labeling Kit from ChangRu Biotech Ltd. (Guangzhou, China) according to the manufacturer’s protocol. After the labeling reaction, gel filtration was used to remove the free FITC. In order to determine the amount of the residual free FITC, the peptides were submitted to ultrafiltration using Amicon Ultra – 0.5 mL (Millipore, USA) with a molecular sieve of 2000 Da. After centrifugation (1000×g, 10 min) the peptide was subjected to fluorescence measurements performed with the multi-wavelength scanner Victor 3 (GE, USA) at the excitation of 495 nm and the emission of 520 nm. Protein concentrations were determined using the K4000 Bradford Protein Quantification Kit (Innovative, Guangzhou, China). The labeling efficiency was calculated using the following formula: label efficiency (LE) = fluorescence value (FV)/peptide mass (mol) (PM), representing the fluorescence intensity (AU) per mol of peptide (mol).
Male rats with body weight from 160 to 180 g were purchased from the Medical and Experimental Animal Center (Guangdong, China). Rats were randomly assigned to one of the experimental groups (7 rats per group) and subjected to eye drops with FITC labeled peptides (100 nmol/kg) and PBS as control. Rats were sacrificed by anesthesia 2 h after the eye drop administration and the retina was separated, weighed, washed three times with PBS and divided into two parts. One part was prepared on the glass slide with glycerin and subjected to fluorescence microscopic observation of FITC with 495 nm excitation/520 nm emission. All images, focused on the left upper regions of the retina, were taken with 500 ms exposure time. The other part of the retina was subjected to grinding and ultrasonication in PBS at a concentration of 100 mg weight tissue per milliliter of PBS. The supernatant was collected by centrifugation and the fluorescence intensity in the supernatant (100 uL) was determined. The valid fluorescence intensity (FI) for each sample treated with FITC labeled peptide was corrected by subtracting the fluorescence value of the sample treated with PBS, which was used as a blank background. The Efficiency of Traversing Eye to Retina (EtE) was expressed as the percentages of the FITC labeled peptide mass in the retina to the total FITC labeled peptide mass. The EtE was calculated using the following formula: EtE = tFI/LE/PW × 100% (tFI presents the fluorescence intensity of retina (arbitration unit, AU); LE presents the label efficiency of each peptide which has been determined above; PW presents the peptide mass (mole)).
Fig. 1 The efficiency of FITC labeled PACAP/PACAP-TAT (a, b) and VIP/VIP-TAT (c, d) traversing to retina given in eye drops. The retina was separated 2 h after the eye drops and submitted to the fluorescence microscopic observation of FITC fluorescence signal (A, C) and the calculation of Efficiency of Traversing Eye to Retina (EtE) (b, d). The data are means ± SEM of four experiments

[2] = test system: retina (BCCAO-induced retinopathy); assay: Retinal layer thickness / morphology after bilateral carotid artery occlusion (BCCAO), eye drops
Procedure: (§1) Adult male rat litters were housed in the animal facility in individual cages in a 12 h light-dark cycle with food and water ad libitum. Animal housing, care and application of experimental procedures were in accordance with institutional guidelines under approved protocols (No: BA02/2000–26/2017, University of Pecs). Under isoflurane anesthesia, common carotid arteries were exposed on both sides through a midline incision and then ligated with a 3–0 filament. A group of animals (sham group) underwent all steps of the operating procedure except ligation of the carotid arteries. Immediately following the operation, the right eye of the animals was treated with derivatives of PACAP (PACAP-TAT /n = 17/ or VIP-TAT /n = 17/) eye drops (1 μg/drop). Dose and schedule of the eye drop treatments were based on our previous experiments (Werling et al. [2016]). In the experiment for histological analysis, the different derivatives were dissolved in benzalkonium solution for ophthalmic use (solutio ophthalmica cum benzalkonio (SOCB)). The left eye, serving as a control, was treated with vehicle containing neither PACAP-TAT nor VIP-TAT. Animals were treated for five consecutive days, twice a day with one drop of drug, under brief isoflurane anesthesia (max. 5 min).
(§2) Fourteen days after the operation, rats (n = 10 SHAM and n = 24 BCCAO) were killed with anesthetic and the eyes were processed for histology. The eyes were removed and the retinas were solved in phosphate buffered saline (PBS), fixed in 4% paraformaldehyde dissolved in 0.1 M phosphate buffer (PB) (Sigma, Budapest, Hungary) and embedded in Durcupan ACM resin (Sigma, Budapest, Hungary). Retinas were cut at 2 μm and stained with toluidine blue dye (Sigma, Hungary). Sections were mounted in DPX medium (Sigma, Hungary) and photographs were taken with a digital CCD camera using the Spot program. Central retinal areas within 1 mm from the optic nerve were used (n = 5 measurements from one tissue block). The following parameters were measured: (i) cross-section of the retina from the outer limiting membrane (OLM) to the inner limiting membrane (ILM), (ii) the width of individual retinal layers (outer nuclear layer [ONL], outer plexiform layer [OPL], inner nuclear layer [INL], inner plexiform layer [IPL]), (iii) the number of cells/100 μm section length in the GCL, and the (iv) number of cells/[…]. Results are presented as mean ± SEM. Statistical comparisons were made using the two-way ANOVA test followed by Tukey’s post hoc analysis.
(§3) Fig. 4 Quantification of retinal layers in SHAM+SOCB, in SHAM+PACAP-TAT, in BCCAO+SOCB, and in BCCAO+PACAP-TAT animals; the right eye was treated with PACAP-TAT eye drops, the left eye served as controls receiving only SOCB. Comparison of all retinal layers (a–e). […] Statistical significance (*p < 0.05 vs. SHAM+SOCB retinas, #p < 0.05 vs. BCCAO+SOCB retinas) was calculated by two-way ANOVA followed by Fischer’s post hoc test
as §3, with “6” for “4”, “SHAM+VIP-TAT,” for “SHAM+PACAP-TAT,”, “BCCAO+VIP-TAT” for “BCCAO+PACAP-TAT”, “VIP-TAT” for “PACAP-TAT”, “control” for “controls”

[3] = test system: retina (BCCAO-induced retinopathy); assay: Number of cells in retinal nuclear layers and GCL after BCCAO, eye drops; conditions: eye drops 1 μg/drop, twice a day, five days, vs BCCAO-induced degenerated retinas, 14 days
Procedure: as §1, §2
(§4) Fig. 5 Quantification of the number of cells/100 μm GCL length (a), the number of cells/500 μm^2 ONL (b) and INL (c) areas in SHAM+SOCB, in SHAM+PACAP-TAT, in BCCAO+SOCB, and in BCCAO+PACAP-TAT animals. Statistical significance (*p < 0.05 vs. SHAM+SOCB retinas, #p < 0.05 vs. BCCAO+SOCB retinas) was calculated by two-way ANOVA followed by Bonferroni’s post hoc test
as §4, with “Fig. 7” for “Fig. 5”, “in SHAM+VIP-TAT,” for “in SHAM+PACAP-TAT,”, “in BCCAO+VIP-TAT” for “in BCCAO+PACAP-TAT”

Compound: CC[C@H](C)[C@H](NC(=O)CNC(=O)[C@H](CC(=O)O)NC(=O)[C@H](CO)NC(=O)[C@@H](N)Cc1c[nH]cn1)C(=O)N[C@@H](Cc1ccccc1)C(=O)N[C@H](C(=O)N[C@@H](CC(=O)O)C(=O)N[C@@H](CO)C(=O)N[C@@H](Cc1ccc(O)cc1)C(=O)N[C@@H](CO)C(=O)N[C@@H](CCCNC(=N)N)C(=O)N[C@@H](Cc1ccc(O)cc1)C(=O)N[C@@H](CCCNC(=N)N)C(=O)N[C@@H](CCCCN)C(=O)N[C@@H](CCC(N)=O)C(=O)N[C@@H](CCSC)C(=O)N[C@@H](C)C(=O)N[C@H](C(=O)N[C@@H](CCCCN)C(=O)N[C@@H](CCCCN)C(=O)N[C@@H](Cc1ccc(O)cc1)C(=O)N[C@@H](CC(C)C)C(=O)N[C@@H](C)C(=O)N[C@@H](C)C(=O)N[C@H](C(=O)N[C@@H](CC(C)C)C(=O)NCC(=O)N[C@@H](CCCCN)C(=O)N[C@@H](CCCNC(=N)N)C(=O)N[C@@H](Cc1ccc(O)cc1)C(=O)N[C@@H](CCCCN)C(=O)N[C@@H](CCC(N)=O)C(=O)N[C@@H](CCCNC(=N)N)C(=O)N[C@H](C(=O)N[C@@H](CCCCN)C(=O)N[C@@H](CC(N)=O)C(=O)N[C@@H](CCCCN)C(=O)NCC(=O)N[C@@H](CCCNC(=N)N)C(=O)N[C@@H](CCCCN)C(=O)N[C@@H](CCCCN)C(=O)N[C@@H](CCCNC(=N)N)C(=O)N[C@@H](CCCNC(=N)N)C(=O)N[C@@H](CCC(N)=O)C(=O)N[C@@H](CCCNC(=N)N)C(=O)N[C@@H](CCCNC(=N)N)C(=O)N[C@@H](CCCNC(=N)N)C(=O)N1CCC[C@H]1C(=O)N[C@@H](CCC(N)=O)C(=O)O)C(C)C)C(C)C)C(C)C)[C@@H](C)O [PACAP-TAT]
- Efficiency of Traversing Eye to Retina (EtE) ([1]; FITC labeled peptides, eye drops 100 nmol/kg, retina separated 2 h after, fluorescence 495 nm excitation/520 nm emission, % of FITC labeled peptide mass in retina to total, means ± SEM of four experiments (7 rats per group)): 3.66 ± 0.67%
- EtE relative to the untagged peptide ([1]; PACAP-TAT/VIP-TAT vs PACAP/VIP, respectively, eye drops 100 nmol/kg, 2 h): about three-fold that of PACAP/VIP
- FITC fluorescence density per area unit in the retina ([1]; fluorescence microscopy of retina 2 h after eye drops of FITC labeled peptides (100 nmol/kg), vs PACAP/VIP): much higher than in retinas treated with eye drops of PACAP/VIP
- OPL preservation after BCCAO ([2]; BCCAO + eye drops, OPL almost disappeared in several BCCAO-induced degenerated retinas): preserved
- Retinal degeneration in light microphotographs after BCCAO ([2]; BCCAO + eye drops, toluidine blue sections, 14 days, severe degeneration in BCCAO+SOCB): only mild degeneration
- Retinoprotective efficacy of eye drops, overall / compared with untagged peptide ([2]; BCCAO, topical eye drops in SOCB): attenuate ischemic retinal degeneration via the PAC1 receptor; also recorded: did not prove to have significantly higher retinoprotective efficacy than untagged PACAP
- Retinal layer thickness (OLM-ILM, ONL, OPL, INL, IPL) after BCCAO ([2]; BCCAO, eye drops 1 μg/drop, twice a day, five consecutive days, in SOCB, right eye, left eye SOCB control, 14 days, p < 0.05 vs. BCCAO+SOCB): significant amelioration in all retinal layers; also recorded: improved the structure of all the retinal layers
- Change of retinal thickness in sham animals ([2]; eye drops alone in sham animals, 1 μg/drop, twice a day, five consecutive days, in SOCB, histology 14 days after operation): did not cause any changes in the retinal thickness
- Number of cells in the GCL/100 μm after BCCAO [3]: significantly higher compared to the BCCAO-induced degenerated retinas
- Number of cells in the INL/500 μm2 after BCCAO [3]: significantly higher compared to the BCCAO-induced degenerated retinas
- Number of cells in the ONL/500 μm2 after BCCAO [3]: significantly higher compared to the BCCAO-induced degenerated retinas
